Results reported in PMC3044687, “The C-Terminal Domain of the Arabinosyltransferase Mycobacterium tuberculosis EmbC Is a Lectin-Like Carbohydrate Binding Module” (PLoS Pathogens, 2011).
pKd: −log10 of the molar value.

How the values were obtained:
[1] = biological target: EmbC^CT (C-terminal domain of M. tuberculosis EmbC, residues 719–1094) (Mycobacterium tuberculosis, UniProt P9WNL5); test: Solution binding assay by intrinsic tryptophan fluorescence, wild-type EmbC^CT; settings: wild-type EmbC^CT 20 µM, 50 mM KH2PO4 pH 7.9, 300 mM NaCl; single site saturation fit
Protocol: Intrinsic tryptophan fluorescence (ITF) experiments were carried out using a PTI QuantaMaster 40 spectrofluorimeter, recording data with the FeliX32 software package (PTI, Birmingham, New Jersey, USA). The excitation wavelength was set to 294 nm and the fluorescence emission (Femission) was recorded between 300–400 nm for each ligand aliquot added to a 200 µl solution containing 20 µM EmbC^CT in 50 mM KH2PO4 (pH 7.9), 300 mM NaCl. […] The change in fluorescence emission (ΔFemission) was calculated by subtracting Femission (recorded 2 min after each ligand addition) from Femission^max, and the data was then plotted against ligand concentration, [L] (3 independent experiments). A plot of ΔFemission at λ = 338 nm vs. [L] was fitted to the saturation binding equation using GraphPad Prism software: [drawing 1]

[2] = system: Araf transferase (isolated mycobacterial membranes); settings: incubated with [14C]-labelled Araf-donor DPA and isolated mycobacterial membranes; cited from earlier work

EmbC^CT (C-terminal domain of M. tuberculosis EmbC, residues 719–1094), sequence (P9WNL5 719-1094 limits assumed): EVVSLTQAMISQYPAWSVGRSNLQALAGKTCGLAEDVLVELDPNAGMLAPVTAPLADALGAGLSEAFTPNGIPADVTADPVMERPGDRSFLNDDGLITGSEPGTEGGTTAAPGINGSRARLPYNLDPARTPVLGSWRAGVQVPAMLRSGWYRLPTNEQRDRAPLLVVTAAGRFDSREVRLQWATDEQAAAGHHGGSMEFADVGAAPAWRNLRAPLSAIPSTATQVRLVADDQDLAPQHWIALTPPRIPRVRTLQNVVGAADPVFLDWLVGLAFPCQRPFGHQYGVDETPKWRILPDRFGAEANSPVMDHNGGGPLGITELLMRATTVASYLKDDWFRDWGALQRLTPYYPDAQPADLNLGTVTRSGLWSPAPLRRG

Structure (SMILES)	Fmax [1]	pKd [1]	acceptor activity (in words) [2]
CCCCCCCCO[C@H]1O[C@H](CO[C@H]2O[C@H](CO[C@H]3O[C@H](CO[C@H]4O[C@H](CO[C@H]5O[C@H](CO)[C@@H](O)[C@@H]5O)[C@@H](O)[C@@H]4O)[C@@H](O)[C@@H]3O)[C@@H](O)[C@@H]2O)[C@@H](O)[C@@H]1O [Ara(1→5)4Ara-O-C8, [α-D-Araf-(1→5)]4-α-D-Araf-O-(CH2)7CH3]	0.157		
CO[C@H]1O[C@H](CO[C@H]2O[C@H](CO)[C@@H](O)[C@@H]2O)[C@@H](O)[C@@H]1O [Ara(1→5)Ara-O-C1, α-D-Araf-(1→5)-α-D-Araf-O-CH3]	0.26	4.96	
CCCCCCCCO[C@H]1O[C@H](CO[C@H]2O[C@H](CO)[C@@H](O)[C@@H]2O)[C@@H](O)[C@@H]1O [Ara(1→5)Ara-O-C8, α-D-Araf-(1→5)-α-D-Araf-O-(CH2)7CH3]	0.22		potent acceptor mimics
CCCCCCCCO[C@H]1O[C@H](CO[C@H]2O[C@H](CO[C@H]3O[C@H](CO)[C@@H](O)[C@@H]3O)[C@@H](O)[C@@H]2O)[C@@H](O)[C@@H]1O [Ara(1→5)2Ara-O-C8, [α-D-Araf-(1→5)]2-α-D-Araf-O-(CH2)7CH3]	0.105	4.60	
